Earlier results in US20220323439A1, “URACIL DERMAL PHARMACEUTICAL FORMULATION” (NANOMETICS LLC (D.B.A PHD BIOSCIENCES), priority 2019, published 2022).

Conditions: oral uracil 500 mg/m^2

- Cmax of uracil after oral administration: 20000 ng/mL
SMILES: O=c1cc[nH]c(=O)[nH]1 [uracil, Uracil]
